For data set [1] the following is noted: injected i.v. into mice; cited from earlier work.
A short description of data set [2]: in vivo. Conditions: female, BALB/c nude, mouse, eye region (fluorescence signal), iv, 20 μg/200 μl.
Procedure: Female BALB/c nude mice received inhalation anaesthesia, were placed in the imaging chamber (FIG. 3) and injected i.v. with a dose of 20 μg/200 μl. The fluorescence signal intensity measurements in the eye was started 10 sec before i.v. injection of ICG and images were recorded every second with an acquisition time of 500 ms over a period of 8 minutes. ICG was excited with light at a wavelength range from 671 to 705 nm and the emission was detected at 820 nm.
Female BALB/c nude received inhalation anesthesia, were placed into the imaging chamber and injected i.v. with ICG (20 μg/200 μl). The fluorescence signal intensity was measured starting 10 sec before injection of ICG. Images in the region of interest were recorded every second with an acquisition time of 500 ms over a period of 8 min. ICG was excited with light at a wavelength range from 671 to 705 nm and the emission was detected at 820 nm. The fluorescence intensity from these regions were then calculated and plotted as a function of time.
Female BALB/c nude mice received inhalation anesthesia, were placed in the imaging chamber (FIG. 3) and injected i.v. with a dose of 20 μg/200 μl.
A short description of data set [3]: in vivo. Conditions: BALB/c nude, mouse, eye (fluorescence signal intensity in the eye region), iv, 20 μg/200 μl.
Procedure: (§1) We first evaluated the technical feasibility of this new approach by using indocyanine green (ICG) a fluorescent dye. […] Female BALB/c nude mice received inhalation anaesthesia, were placed in the imaging chamber (FIG. 3) and injected i.v. with a dose of 20 μg/200 μl. The fluorescence signal intensity measurements in the eye was started 10 sec before i.v. injection of ICG and images were recorded every second with an acquisition time of 500 ms over a period of 8 minutes. ICG was excited with light at a wavelength range from 671 to 705 nm and the emission was detected at 820 nm. […] In a second experiment, a BALB/c nude mouse with a s.c. growing tumor (Calu3) was injected with ICG i.v. and signal intensity in eye, liver, kidney, brain and the tumor region was monitored.
(§2) The fluorescence signal intensity in Calu3 xenograft was measured as described before. ROI were identified for the eye, liver, kidney, brain and s.c. growing tumor using the anatomical pictures of the subjects. The fluorescence intensity from these regions were then calculated and plotted as a function of time.
(§3) In a second experiment, a BALB/c nude mouse with a s.c. growing tumor (Calu3) was injected with ICG i.v. and signal intensity in eye, liver, kidney, brain and the tumor region was monitored.
Data set [4] is described as follows: Fluorescence signal intensity of ICG in eye, liver, kidney, brain and tumor region of a mouse with s.c. Calu3 tumor. Conditions: second experiment, ICG i.v., BALB/c nude mouse with s.c. Calu3 tumor.
Procedure: as §1, §2, §3
The conditions of data set [5]: after i.v. injection; cited from earlier work.
Data set [6] deals with BMP-2 induced upregulation of Hepcidin mRNA in HepG2 cells. The experiment in a line: Block of BMP-2 induced upregulation of Hepcidin mRNA in HepG2 cells. Type of data set: cell-based. Conditions: in vitro.

With `CC1(C)C(/C=C/C=C/C=C/C=C2\N(CCCCS(=O)(=O)O)c3ccc4ccccc4c3C2(C)C)=[N+](CCCCS(=O)(=O)[O-])c2ccc3ccccc3c21` [ICG, Indocyanine green], in data set [1], the organ of accumulation result was “accumulates in the liver” and the “time in which cleared from the circulation” value is listed as 2 to 4 min. Moreover, in the data set “in vivo [2]”, the Tmax was 2 min and the half-life was found to be 6.6 min. Besides, in “in vivo [3]”, the Tmax was 1.2 min and the half-life was determined as 5.4 min. Moreover, in data set [4], the “accumulation in the liver, time of reaching a plateau” value came out at 3.8 min.

`NCCC(O)(P(=O)(O)O)P(=O)(O)O` [Pamidronate]: in data set [5], the serum half life is reported as 20 to 30 min.

B1: non-labeled Hemojuvelin: non-labeled Hemojuvelin (protein, UniProt Q6ZVN8 36-400, looked up)
Hemojuvelin: QCKILRCNAEYVSSTLSLRGGGSSGALRGGGGGGRGGGVGSGGLCRALRSYALCTRRTARTCRGDLAFHSAVHGIEDLMIQHNCSRQGPTAPPPPRGPALPGAGSGLPAPDPCDYEGRFSRLHGRPPGFLHCASFGDPHVRSFHHHFHTCRVQGAWPLLDNDFLFVQATSSPMALGANATATRKLTIIFKNMQECIDQKVYQAEVDNLPVAFEDGSINGGDRPGGSSLSIQTANPGNHVEIQAAYIGTTIIIRQTAGQLSFSIKVAEDVAMAFSAEQDLQLCVGGCPPSQRLSRSERNRRGAITIDTARRLCKEGLPVEDAYFHSCVFDVLISGDPNFTVAAQAALEDARAFLPDLEKLHLFPSD
For B1, the “ability to block BMP-2 induced upregulation of Hepcidin mRNA, non-labeled versus Cy5-labeled” value in data set [6] was “did not differ”.

B2: Cy5-labeled Hemojuvelin: Hemojuvelin labeled with Cy5 (conjugate, UniProt Q6ZVN8 36-400, looked up)
Hemojuvelin: QCKILRCNAEYVSSTLSLRGGGSSGALRGGGGGGRGGGVGSGGLCRALRSYALCTRRTARTCRGDLAFHSAVHGIEDLMIQHNCSRQGPTAPPPPRGPALPGAGSGLPAPDPCDYEGRFSRLHGRPPGFLHCASFGDPHVRSFHHHFHTCRVQGAWPLLDNDFLFVQATSSPMALGANATATRKLTIIFKNMQECIDQKVYQAEVDNLPVAFEDGSINGGDRPGGSSLSIQTANPGNHVEIQAAYIGTTIIIRQTAGQLSFSIKVAEDVAMAFSAEQDLQLCVGGCPPSQRLSRSERNRRGAITIDTARRLCKEGLPVEDAYFHSCVFDVLISGDPNFTVAAQAALEDARAFLPDLEKLHLFPSD
modifications: Cy5 label
For B2, in data set [6], the “ability to block BMP-2 induced upregulation of Hepcidin mRNA, non-labeled versus Cy5-labeled” value is recorded as “did not differ”.

For orientation: Tmax means the time at which the peak concentration occurs. One may read the half-life as how long it takes for the measured level to halve. Read a high half-life as slow decline.

These data come from patent publication US20120230918A1, “NON-INVASIVE IN VIVO OPTICAL IMAGING METHOD” (Hoffmann-La-Roche Inc., priority 2009, published 2012).
